Data taken from the supplement of paper PMC10307832.

How the values were obtained:
Experiment in all cases: relative viability (nuclei count vs DMSO), 5 days (fraction); higher = more cells survive
[1] = compound: CC(C)(C)c1cc(NC(=O)Nc2ccc(-c3cn4c(n3)sc3cc(OCCN5CCOCC5)ccc34)cc2)no1 [Quizartinib] + O=C(c1cc(Cc2n[nH]c(=O)c3ccccc23)ccc1F)N1CCN(C(=O)C2CC2)CC1 [Olaparib] (partner 8 µM)
Outline: (§1)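 Relative viability divides the nuclei count in treated wells by that in vehicle wells. Lung cancer cell lines were seeded in 1536-well plates, dosed by pin tool the next day, and fixed and stained after 5 days in one step with final 0.05% Triton X-100, 1% formaldehyde and 1 ug/ml Hoechst. Dosing was a single drug or a fixed anchor-drug dose plus five library-drug doses (not always all listed) in √10 steps, and values are medians of duplicate plates imaged at 4×.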

[2] = compound: COCC[n+]1c2c(n(Cc3cnccn3)c1C)C(=O)c1ccccc1C2=O [YM155] + CS(=O)(=O)N1CCN(Cc2cc3nc(-c4cccc5[nH]ncc45)nc(N4CCOCC4)c3s2)CC1 [Pictilisib] (partner 1 µM)
Outline: as §1

[3] = compound: COCC[n+]1c2c(n(Cc3cnccn3)c1C)C(=O)c1ccccc1C2=O [YM155] + O=C(CCCCCCC(=O)Nc1ccccc1)NO [Vorinostat] (partner 1 µM)
Outline: as §1

[4] = compound: CC(C)(C)c1cc(NC(=O)Nc2ccc(-c3cn4c(n3)sc3cc(OCCN5CCOCC5)ccc34)cc2)no1 [Quizartinib] + Nc1nc2[nH]cc(CCc3ccc(C(=O)N[C@@H](CCC(=O)O)C(=O)O)cc3)c2c(=O)[nH]1 [Pemetrexed] (partner 0.2 µM)
Outline: as §1

Cell Line	relative viability ([1]; first compound 0.001 µM)	relative viability ([1]; first compound 0.003162 µM)	relative viability ([1]; first compound 0.01 µM)	relative viability ([1]; first compound 0.03162 µM)	relative viability ([1]; first compound 0.1 µM)	relative viability ([2]; first compound 0.002 µM)	relative viability ([2]; first compound 0.006325 µM)	relative viability ([2]; first compound 0.02 µM)	relative viability ([2]; first compound 0.06325 µM)	relative viability ([3]; first compound 0.002 µM)	relative viability ([3]; first compound 0.006325 µM)	relative viability ([3]; first compound 0.02 µM)	relative viability ([3]; first compound 0.06325 µM)	relative viability ([4]; first compound 0.001 µM)	relative viability ([4]; first compound 0.003162 µM)	relative viability ([4]; first compound 0.01 µM)	relative viability ([4]; first compound 0.03162 µM)	relative viability ([4]; first compound 0.1 µM)
LCLC-103H	0.691	0.718	0.789	0.769	0.819	0.595	0.654	0.668	0.508	0.732	0.824	0.864	0.802	0.419	0.485	0.484	0.464	0.493
NCI-H1650	0.793	0.816	0.607		0.737	0.498	0.573	0.532	0.276	0.545	0.427	0.468	0.3	0.342	0.398	0.441		0.381
SW 1573	0.292	0.538	0.572		0.581	0.484	0.465	0.426	0.0949	0.698	0.731	0.603	0.0728	0.872	0.75	0.826		0.848
NCI-H1703	0.488	0.306	0.2	0.166	0.307	0.26	0.232	0.248	0.116									
Calu-6	0.604	0.549	0.512	0.492	0.64	0.879	0.605	0.169	0.13									
NCI-H2342	0.415	0.474	0.51	0.388	0.395					0.717	0.724	0.705	0.704	0.745	0.83	0.774	0.746	0.778
NCI-H522	0.61	0.764	0.716	0.6	0.783					0.846	0.78	0.933	0.932	0.948	0.984	0.934	0.948	1.01
NCI-H1792	0.443	0.381	0.54	0.483	0.312	0.331	0.289	0.318	0.267					0.624	0.79	0.913	0.69	0.713
NCI-H1563						0.633	0.674	0.626	0.75					1.18	0.788	0.8	0.717	0.76
ABC-1		0.807	0.845	0.911	0.956	0.637	0.594	0.341	0.197		1.03	0.373	0.303					
NCI-H727	0.66	0.678	0.843	0.708	0.769	0.397	0.533	0.446	0.375	1.32	1.28	1.27	1.29					
A549		0.327	0.378	0.257	0.439	0.511	0.454	0.378	0.0793									
